# From the OligoGym collection
# Oligonucleotides are given in HELM: sugar(base)linkage, 5' to 3'; d 2'-deoxyribose, r ribose, m 2'-O-methylribose, p phosphate. ss, as = sense and antisense strand
# Biological target: UBE2N
# Experiment: reporter assay of Huesken 2005
# Conditions: siRNA
# Further: test concentration or dose not given here.
row,Substance,normalised inhibition (eCFP-eYFP dual reporter) [%]
1,RNA1{r(G)p.r(C)p.r(A)p.r(G)p.r(A)p.r(U)p.r(C)p.r(C)p.r(G)p.r(C)p.r(A)p.r(C)p.r(A)p.r(G)p.r(U)p.r(U)p.r(C)p.r(U)p.r(G)p.d(T)p.d(T)}|RNA2{r(C)p.r(A)p.r(G)p.r(A)p.r(A)p.r(C)p.r(U)p.r(G)p.r(U)p.r(G)p.r(C)p.r(G)p.r(G)p.r(A)p.r(U)p.r(C)p.r(U)p.r(G)p.r(C)p.d(A)p.d(G)}$$$RNA1{StrandType:ss}|RNA2{StrandType:as}$,86.3
2,RNA1{r(C)p.r(C)p.r(U)p.r(A)p.r(A)p.r(U)p.r(G)p.r(U)p.r(A)p.r(G)p.r(A)p.r(C)p.r(A)p.r(A)p.r(G)p.r(U)p.r(U)p.r(G)p.r(G)p.d(T)p.d(T)}|RNA2{r(C)p.r(C)p.r(A)p.r(A)p.r(C)p.r(U)p.r(U)p.r(G)p.r(U)p.r(C)p.r(U)p.r(A)p.r(C)p.r(A)p.r(U)p.r(U)p.r(A)p.r(G)p.r(G)p.d(A)p.d(T)}$$$RNA1{StrandType:ss}|RNA2{StrandType:as}$,69.4
3,RNA1{r(C)p.r(C)p.r(A)p.r(U)p.r(U)p.r(A)p.r(G)p.r(C)p.r(A)p.r(A)p.r(A)p.r(U)p.r(G)p.r(A)p.r(U)p.r(G)p.r(U)p.r(A)p.r(G)p.d(T)p.d(T)}|RNA2{r(C)p.r(U)p.r(A)p.r(C)p.r(A)p.r(U)p.r(C)p.r(A)p.r(U)p.r(U)p.r(U)p.r(G)p.r(C)p.r(U)p.r(A)p.r(A)p.r(U)p.r(G)p.r(G)p.d(A)p.d(T)}$$$RNA1{StrandType:ss}|RNA2{StrandType:as}$,77.9
4,RNA1{r(U)p.r(A)p.r(G)p.r(C)p.r(G)p.r(G)p.r(A)p.r(G)p.r(C)p.r(A)p.r(G)p.r(U)p.r(G)p.r(G)p.r(A)p.r(A)p.r(G)p.r(A)p.r(C)p.d(T)p.d(T)}|RNA2{r(G)p.r(U)p.r(C)p.r(U)p.r(U)p.r(C)p.r(C)p.r(A)p.r(C)p.r(U)p.r(G)p.r(C)p.r(U)p.r(C)p.r(C)p.r(G)p.r(C)p.r(U)p.r(A)p.d(C)p.d(A)}$$$RNA1{StrandType:ss}|RNA2{StrandType:as}$,40.2
5,RNA1{r(A)p.r(C)p.r(G)p.r(U)p.r(U)p.r(U)p.r(C)p.r(A)p.r(U)p.r(G)p.r(A)p.r(C)p.r(C)p.r(A)p.r(A)p.r(A)p.r(A)p.r(U)p.r(U)p.d(T)p.d(T)}|RNA2{r(A)p.r(A)p.r(U)p.r(U)p.r(U)p.r(U)p.r(G)p.r(G)p.r(U)p.r(C)p.r(A)p.r(U)p.r(G)p.r(A)p.r(A)p.r(A)p.r(C)p.r(G)p.r(U)p.d(A)p.d(C)}$$$RNA1{StrandType:ss}|RNA2{StrandType:as}$,92.1
6,RNA1{r(G)p.r(C)p.r(C)p.r(G)p.r(A)p.r(A)p.r(C)p.r(C)p.r(A)p.r(G)p.r(A)p.r(U)p.r(G)p.r(A)p.r(G)p.r(A)p.r(G)p.r(C)p.r(A)p.d(T)p.d(T)}|RNA2{r(U)p.r(G)p.r(C)p.r(U)p.r(C)p.r(U)p.r(C)p.r(A)p.r(U)p.r(C)p.r(U)p.r(G)p.r(G)p.r(U)p.r(U)p.r(C)p.r(G)p.r(G)p.r(C)p.d(T)p.d(T)}$$$RNA1{StrandType:ss}|RNA2{StrandType:as}$,82.6
7,RNA1{r(C)p.r(U)p.r(C)p.r(C)p.r(C)p.r(A)p.r(A)p.r(U)p.r(C)p.r(C)p.r(A)p.r(G)p.r(A)p.r(U)p.r(G)p.r(A)p.r(U)p.r(C)p.r(C)p.d(T)p.d(T)}|RNA2{r(G)p.r(G)p.r(A)p.r(U)p.r(C)p.r(A)p.r(U)p.r(C)p.r(U)p.r(G)p.r(G)p.r(A)p.r(U)p.r(U)p.r(G)p.r(G)p.r(G)p.r(A)p.r(G)p.d(C)p.d(A)}$$$RNA1{StrandType:ss}|RNA2{StrandType:as}$,58.7
8,RNA1{r(G)p.r(A)p.r(A)p.r(C)p.r(C)p.r(A)p.r(G)p.r(U)p.r(U)p.r(C)p.r(C)p.r(U)p.r(G)p.r(G)p.r(C)p.r(A)p.r(U)p.r(C)p.r(A)p.d(T)p.d(T)}|RNA2{r(U)p.r(G)p.r(A)p.r(U)p.r(G)p.r(C)p.r(C)p.r(A)p.r(G)p.r(G)p.r(A)p.r(A)p.r(C)p.r(U)p.r(G)p.r(G)p.r(U)p.r(U)p.r(C)p.d(T)p.d(G)}$$$RNA1{StrandType:ss}|RNA2{StrandType:as}$,36
9,RNA1{r(A)p.r(C)p.r(C)p.r(A)p.r(A)p.r(A)p.r(A)p.r(U)p.r(U)p.r(U)p.r(A)p.r(U)p.r(C)p.r(A)p.r(U)p.r(C)p.r(C)p.r(U)p.r(A)p.d(T)p.d(T)}|RNA2{r(U)p.r(A)p.r(G)p.r(G)p.r(A)p.r(U)p.r(G)p.r(A)p.r(U)p.r(A)p.r(A)p.r(A)p.r(U)p.r(U)p.r(U)p.r(U)p.r(G)p.r(G)p.r(U)p.d(C)p.d(A)}$$$RNA1{StrandType:ss}|RNA2{StrandType:as}$,81.6
10,RNA1{r(U)p.r(U)p.r(U)p.r(U)p.r(G)p.r(A)p.r(A)p.r(A)p.r(G)p.r(A)p.r(U)p.r(A)p.r(A)p.r(G)p.r(U)p.r(G)p.r(G)p.r(U)p.r(C)p.d(T)p.d(T)}|RNA2{r(G)p.r(A)p.r(C)p.r(C)p.r(A)p.r(C)p.r(U)p.r(U)p.r(A)p.r(U)p.r(C)p.r(U)p.r(U)p.r(U)p.r(C)p.r(A)p.r(A)p.r(A)p.r(A)p.d(T)p.d(A)}$$$RNA1{StrandType:ss}|RNA2{StrandType:as}$,35.5
11,RNA1{r(A)p.r(G)p.r(C)p.r(C)p.r(C)p.r(A)p.r(A)p.r(G)p.r(C)p.r(C)p.r(A)p.r(U)p.r(A)p.r(G)p.r(A)p.r(A)p.r(A)p.r(C)p.r(A)p.d(T)p.d(T)}|RNA2{r(U)p.r(G)p.r(U)p.r(U)p.r(U)p.r(C)p.r(U)p.r(A)p.r(U)p.r(G)p.r(G)p.r(C)p.r(U)p.r(U)p.r(G)p.r(G)p.r(G)p.r(C)p.r(U)p.d(T)p.d(C)}$$$RNA1{StrandType:ss}|RNA2{StrandType:as}$,91.7
12,RNA1{r(A)p.r(A)p.r(A)p.r(C)p.r(U)p.r(U)p.r(G)p.r(A)p.r(A)p.r(C)p.r(U)p.r(A)p.r(U)p.r(U)p.r(C)p.r(C)p.r(U)p.r(U)p.r(C)p.d(T)p.d(T)}|RNA2{r(G)p.r(A)p.r(A)p.r(G)p.r(G)p.r(A)p.r(A)p.r(U)p.r(A)p.r(G)p.r(U)p.r(U)p.r(C)p.r(A)p.r(A)p.r(G)p.r(U)p.r(U)p.r(U)p.d(A)p.d(A)}$$$RNA1{StrandType:ss}|RNA2{StrandType:as}$,43.6
13,RNA1{r(C)p.r(U)p.r(A)p.r(G)p.r(A)p.r(U)p.r(A)p.r(U)p.r(U)p.r(U)p.r(U)p.r(G)p.r(A)p.r(A)p.r(A)p.r(G)p.r(A)p.r(U)p.r(A)p.d(T)p.d(T)}|RNA2{r(U)p.r(A)p.r(U)p.r(C)p.r(U)p.r(U)p.r(U)p.r(C)p.r(A)p.r(A)p.r(A)p.r(A)p.r(U)p.r(A)p.r(U)p.r(C)p.r(U)p.r(A)p.r(G)p.d(A)p.d(C)}$$$RNA1{StrandType:ss}|RNA2{StrandType:as}$,85.6
14,RNA1{r(G)p.r(U)p.r(G)p.r(G)p.r(U)p.r(C)p.r(A)p.r(U)p.r(U)p.r(G)p.r(C)p.r(U)p.r(G)p.r(G)p.r(C)p.r(C)p.r(C)p.r(U)p.r(C)p.d(T)p.d(T)}|RNA2{r(G)p.r(A)p.r(G)p.r(G)p.r(G)p.r(C)p.r(C)p.r(A)p.r(G)p.r(C)p.r(A)p.r(A)p.r(U)p.r(G)p.r(A)p.r(C)p.r(C)p.r(A)p.r(C)p.d(A)p.d(T)}$$$RNA1{StrandType:ss}|RNA2{StrandType:as}$,54.1
15,RNA1{r(A)p.r(A)p.r(G)p.r(C)p.r(C)p.r(C)p.r(A)p.r(A)p.r(G)p.r(C)p.r(C)p.r(A)p.r(U)p.r(A)p.r(G)p.r(A)p.r(A)p.r(A)p.r(C)p.d(T)p.d(T)}|RNA2{r(G)p.r(U)p.r(U)p.r(U)p.r(C)p.r(U)p.r(A)p.r(U)p.r(G)p.r(G)p.r(C)p.r(U)p.r(U)p.r(G)p.r(G)p.r(G)p.r(C)p.r(U)p.r(U)p.d(C)p.d(G)}$$$RNA1{StrandType:ss}|RNA2{StrandType:as}$,61.1
16,RNA1{r(G)p.r(A)p.r(A)p.r(G)p.r(A)p.r(C)p.r(C)p.r(A)p.r(A)p.r(C)p.r(G)p.r(A)p.r(A)p.r(G)p.r(C)p.r(C)p.r(C)p.r(A)p.r(A)p.d(T)p.d(T)}|RNA2{r(U)p.r(U)p.r(G)p.r(G)p.r(G)p.r(C)p.r(U)p.r(U)p.r(C)p.r(G)p.r(U)p.r(U)p.r(G)p.r(G)p.r(U)p.r(C)p.r(U)p.r(U)p.r(C)p.d(C)p.d(A)}$$$RNA1{StrandType:ss}|RNA2{StrandType:as}$,85.4
17,RNA1{r(C)p.r(A)p.r(A)p.r(C)p.r(G)p.r(C)p.r(C)p.r(C)p.r(G)p.r(U)p.r(U)p.r(A)p.r(U)p.r(U)p.r(U)p.r(U)p.r(C)p.r(A)p.r(U)p.d(T)p.d(T)}|RNA2{r(A)p.r(U)p.r(G)p.r(A)p.r(A)p.r(A)p.r(A)p.r(U)p.r(A)p.r(A)p.r(C)p.r(G)p.r(G)p.r(G)p.r(C)p.r(G)p.r(U)p.r(U)p.r(G)p.d(C)p.d(T)}$$$RNA1{StrandType:ss}|RNA2{StrandType:as}$,87.1
18,RNA1{r(A)p.r(U)p.r(A)p.r(G)p.r(A)p.r(A)p.r(A)p.r(C)p.r(A)p.r(G)p.r(C)p.r(U)p.r(A)p.r(G)p.r(A)p.r(G)p.r(C)p.r(A)p.r(U)p.d(T)p.d(T)}|RNA2{r(A)p.r(U)p.r(G)p.r(C)p.r(U)p.r(C)p.r(U)p.r(A)p.r(G)p.r(C)p.r(U)p.r(G)p.r(U)p.r(U)p.r(U)p.r(C)p.r(U)p.r(A)p.r(U)p.d(G)p.d(G)}$$$RNA1{StrandType:ss}|RNA2{StrandType:as}$,91.8
19,RNA1{r(A)p.r(U)p.r(U)p.r(A)p.r(G)p.r(C)p.r(A)p.r(A)p.r(A)p.r(U)p.r(G)p.r(A)p.r(U)p.r(G)p.r(U)p.r(A)p.r(G)p.r(C)p.r(G)p.d(T)p.d(T)}|RNA2{r(C)p.r(G)p.r(C)p.r(U)p.r(A)p.r(C)p.r(A)p.r(U)p.r(C)p.r(A)p.r(U)p.r(U)p.r(U)p.r(G)p.r(C)p.r(U)p.r(A)p.r(A)p.r(U)p.d(G)p.d(G)}$$$RNA1{StrandType:ss}|RNA2{StrandType:as}$,34.2
20,RNA1{r(C)p.r(C)p.r(A)p.r(G)p.r(A)p.r(U)p.r(G)p.r(A)p.r(G)p.r(A)p.r(G)p.r(C)p.r(A)p.r(A)p.r(C)p.r(G)p.r(C)p.r(C)p.r(C)p.d(T)p.d(T)}|RNA2{r(G)p.r(G)p.r(G)p.r(C)p.r(G)p.r(U)p.r(U)p.r(G)p.r(C)p.r(U)p.r(C)p.r(U)p.r(C)p.r(A)p.r(U)p.r(C)p.r(U)p.r(G)p.r(G)p.d(T)p.d(T)}$$$RNA1{StrandType:ss}|RNA2{StrandType:as}$,65.8
